Test results published in patent US5795885A, “Method of inhibiting profileration of cells by administering an aminosterol compound” (priority 1995, dated 1998).
Values after ≈ are worked out from the molar mass of the structure shown. Read-outs that look alike come from different tables or passages of the source.

Experiments:
S. aureus = test: antibiotic activity (MIC); type: cell-based; conditions: Staphylococcus aureus
E. Coli = test: antibiotic activity (MIC); type: cell-based; conditions: Escherichia coli, read-out: MIC, E. Coli
P. aerug = test: antibiotic activity (MIC); type: cell-based
[1] = tested on: chick embryo vitelline capillaries; test: chick embryo vitelline capillary regression assay; type: in vivo; parameters: key to vitelline capillary regression: +: Vascular reactivity; 0: No vascular reactivity; +/-: Equivocal reactivity; conditions: for vitelline capillary regression: 60 minutes
Description: Using the chick embryo vitelline capillaries assay, compounds were tested for their ability to induce capillary regression. Each compound was applied in 0.1 ml of 15% Ficol 400 and PBS onto the embryo, and vascular regression was assessed after 60 minutes.
The 3-day chick embryo consists of an embryonic disc from which numerous vessels emerge and return, forming a "figure 8"-shaped structure--the embryo in the center with vascular loops extending outward over both poles. […] Following a lag period of around 15 minutes, the constriction of continuity between capillary and secondary vessels, generally on the "venous" side, was observed. Continued pulsatile blood flow progressed, resulting in a "swelling" of the blind tube, followed by a pinching off of the remaining connection and formation of an enclosed vascular sac resembling a "blood island." This process progressed until only the largest vessels remained intact.

[2] = tested on: PHA-stimulated human lymphocytes; test: inhibition of mitogen (PHA)-stimulated growth of human T-cells; type: cell-based; conditions: Homo sapiens, Lymphocyte, read-out: inhibition of PHA-stimulated human lymphocytes (% control); for inhibition at 1 µg/mL: 1 μg/ml; for inhibition at 5 µg/mL: 5 μg/ml; for inhibition at 10 µg/mL: 10 μg/ml
Text: Results are tabulated below.

[3] = tested on: stage 59-60 Xenopus tadpoles; conditions: for pharmacological response in tadpole: 10 μg/ml in water
[4] = type: physicochemical
Text: Compound 1361 was isolated from shark liver preparations in two different ways: first, as a degradation product of compound 1360; and, subsequently,as a minor aminosterol component fractionating with slightly faster retention time than squalamine during preparative C18 RP-HPLC (component of Fraction VI). In early attempts to purify each aminosterol to homogeneity, pooled fractions from C18 RP-HPLC were subjected to silica gel flash chromatography with CH2 Cl2 :CH30 H:NH4 OH 6:3:1, and the aminosterols were assayed on TLC plates. The pools of free base steroids were then re-subjected to C18 RP-HPLC, using an analytical column.

rabbit NHE3 = rabbit NHE3 (Oryctolagus cuniculus, UniProt P26432); conditions: 10 μg/ml; acid preloaded by 40 mM NH4Cl
Description: Internal pH was measured either following acid loading or in the absence of an acid-loading challenge, with the results shown in FIGS. 1A and 1B.
Specifically, PS120 fibroblasts transfected with rabbit NHE3 were grown in supplemented Dulbecco's-modified Eagle's medium as described by Levine et al., J. Biol. Chem. 268, 1993, 25527-25535. […] For cells not acid-preloaded, the actual internal pH value was monitored as a function of time following addition of squalamine, with the results depicted in FIG. 1B.
PS120 fibroblasts transfected with rabbit NHE3 were grown and acid preloaded by exposure to 40 mM NH4 Cl as described above in conjunction with FIGS. 1A and 1B. Internal cellular pH changes expressed as the rate of pH recovery as a function of restored extracellular sodium ion concentration following exposure to 10 μg/ml of the compound were assayed with the fluorescent dye BCECF-AM as described above.

B16 melanoma = B16 melanoma growth in C57B mice; type: in vivo, mouse
Description: The growth of B16 melanoma in C57B mice is dependent upon neovascularization.
Using the growth of B16 melanoma cells in C57B mice, a recognized model for the evaluation of inhibitors of angiogenesis on the growth of cancers, the effects of subcutaneous, intraperitoneal and oral administration of squalamine were evaluated.
Based on the idea that tumor growth involves both the clonal expansion of a malignant cell along with the development of a supporting vascular supply, a combination of compound 1436 with squalamine was tested to determine whether it would achieve a synergistic effect on solid tumor growth. This concept was evaluated in the B16 melanoma model.
Animals were implanted with B16 melanoma followed by treatment with compound 1436 or 1256 administered in a combined schedule or separately. […] Thus, a combination of these two compounds achieves a therapeutic benefit in tumors dependent on neovascularization that may prevent metastatic spread.

Lewis lung carcinoma = test: growth inhibition / cytotoxicity in vitro; type: cell-based; conditions: 10 μg/ml
Text: (§1) As set forth in Table 7 below, all malignant tumors evaluated in tissue culture, endothelial cells and vascular smooth muscle cells were sensitive to inhibition. Thus, compound 1436 has application in the control of growth factor dependent proliferation of many types of tissue.

[5] = tested on: heart of a juvenile Xenopus laevis frog; test: ex vivo beating of isolated frog heart; conditions: 10 μg/ml; Krebs-Ringer with adrenaline 50 μg/ml; about one hour without compound
Description: To determine if compound 1436 has such utility, the following experiment was performed. The heart of a juvenile Xenopus laevis frog was dissected from the living animal. The heart was placed into a Petri dish containing Krebs-Ringer buffer with adrenaline 50 μg/ml, and examined with the naked eye. At room temperature, the heart continued beating in a coordinated fashion (atrial beat followed by ventricular beat) for about one hour. In the presence of 10 μg/ml of compound 1436, spontaneous beating persisted up to 24 hours.

[6] = tested on: L1210 lymphoblastic leukemia; test: mouse model of L1210 leukemia; type: in vivo, C57B mice
arterial pressure = arterial pressure in the rat after i.v. administration; type: in vivo
Description: A 200-g rat was catheterized in the right carotid artery, and the compound was introduced over a ten-second period to a total dosage of 5 mg/kg. Within 30 seconds, the mean arterial pressure had fallen from about 100 mm Hg to about 70 mm Hg, with a marked reduction in pulse pressure from about 40 mm to about 10 mm. […] If cardiac output was basically unaffected, reduction in blood pressure would have resulted principally from a reduction in system resistance.
At that time, 40 μg of noradrenaline was introduced.

fasting blood glucose = fasting blood glucose in mice; type: in vivo, Male CD-1 mice; conditions: intravenous
Description: To study the effect of steroid administrator or the NHE responsible for secretion of insulin, several of the aminosterols from shark liver were administered to fasting mice. Male CD-1 mice were assigned to one of four treatment groups. Whole blood glucose was tested using glucometer (Lifescan Glucometer II and One Touch test strips). Statistical analysis was via one-way analysis of variance (ANOVA) followed by subsequent Bonferonni's t-test.

[7] = growth and weight gain in growing mice; type: in vivo, C57B mice
Description: Animals were dosed QTD (i.p.) starting on Day 1. […] Animals receiving 5 mg/kg QTD experienced about a 50% reduction in growth, compared to untreated controls, while animals receiving 1 mg/kg QTD were affected by about 10%. […] They appeared very much like hypophysectamized animals might appear.

Murine B16 melanoma = test: growth inhibition in vitro; type: cell-based; conditions: 10 μg/ml
Text: as §1

[8] = tested on: Human coronary artery smooth muscle cells; test: growth inhibition in vitro (Baker et al.); type: cell-based; conditions: 10 μg/ml
Text: as §1

[9] = tested on: human umbilical venous endothelial cells; test: growth inhibition in vitro (Baker et al.); type: cell-based; conditions: 10 μg/ml
Text: as §1

[10] = tested on: Human colon carcinoma SW948; test: growth inhibition in vitro (Baker et al.); type: cell-based; conditions: 10 μg/ml
Text: as §1

Human melanoma WM 1617 = test: growth inhibition in vitro (Baker et al.); type: cell-based; conditions: 10 μg/ml
Text: as §1

[11] = tested on: bovine pulmonary endothelial cells; test: growth inhibition in vitro (Baker et al.); type: cell-based; conditions: 10 μg/ml
Text: as §1

Murine L1210 leukemia = test: growth inhibition in vitro (Baker et al.); type: cell-based; conditions: 10 μg/ml
Text: as §1

[12] = tested on: Human microvascular endothelial cells; test: growth inhibition in vitro (Baker et al.); type: cell-based; conditions: 10 μg/ml
Text: as §1

[13] = tested on: Human colon carcinoma HT29; test: growth inhibition in vitro (Baker et al.); type: cell-based; conditions: 10 μg/ml
Text: as §1

[14] = tested on: human coronary artery smooth muscle; test: proliferation of human coronary artery smooth muscle in vitro; type: cell-based
Text: Aminosterols of the invention may also have utility in inhibiting the growth factor mediated proliferation of smooth muscle within the artery. Following coronary angioplasty, reocclusion commonly occurs, secondary to reparative proliferation of the vascular smooth muscle within the wall of the surgically manipulated blood vessel. This process generally takes place over the course of 7-10 days. To evaluate whether an agent could prevent the growth factor mediated proliferation of smooth muscle within the artery, compound 1436 was evaluated in vitro for its effect on the proliferation of human coronary artery smooth muscle. Results for compound 1436 are shown in FIG. 13, and those for squalamine are shown in FIG. 14, with FIG. 15 being a composite logarithmic plot.

[15] = tested on: Human ovarian carcinoma SKOV3; test: growth inhibition in vitro (Baker et al.); type: cell-based; conditions: 10 μg/ml
Description: as §1
Using the assay described above, the anticancer effects of compound 1437 against several cancer lines was assessed.

HM = HM MTT assay; type: cell-based; conditions: Table II; read-out: Minimum Effective Concentration, HM MTT assay

rabbit NHE3, sequence (P26432 30-832): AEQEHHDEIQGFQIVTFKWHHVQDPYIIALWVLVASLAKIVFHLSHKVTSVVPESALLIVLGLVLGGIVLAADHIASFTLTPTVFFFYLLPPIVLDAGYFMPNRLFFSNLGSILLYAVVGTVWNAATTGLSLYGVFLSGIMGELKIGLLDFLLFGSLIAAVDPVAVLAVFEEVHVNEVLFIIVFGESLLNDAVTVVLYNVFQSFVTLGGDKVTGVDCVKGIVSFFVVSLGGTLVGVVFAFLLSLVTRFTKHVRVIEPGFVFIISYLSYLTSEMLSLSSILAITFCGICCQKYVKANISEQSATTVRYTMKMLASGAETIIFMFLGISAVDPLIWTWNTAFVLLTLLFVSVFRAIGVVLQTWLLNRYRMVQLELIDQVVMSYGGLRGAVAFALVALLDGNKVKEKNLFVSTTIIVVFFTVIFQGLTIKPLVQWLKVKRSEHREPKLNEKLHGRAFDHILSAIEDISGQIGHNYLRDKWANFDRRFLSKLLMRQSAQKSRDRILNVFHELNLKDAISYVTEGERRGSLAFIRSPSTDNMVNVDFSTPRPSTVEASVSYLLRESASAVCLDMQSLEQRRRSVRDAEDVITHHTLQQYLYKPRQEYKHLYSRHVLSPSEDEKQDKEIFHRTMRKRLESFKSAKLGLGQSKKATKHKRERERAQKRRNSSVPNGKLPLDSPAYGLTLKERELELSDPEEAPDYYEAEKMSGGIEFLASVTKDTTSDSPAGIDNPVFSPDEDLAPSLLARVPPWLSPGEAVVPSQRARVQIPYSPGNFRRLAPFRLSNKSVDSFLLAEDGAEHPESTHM

With CC(C)CCC[C@@H](C)[C@H]1CC[C@H]2[C@@H]3CC[C@H]4C[C@H](NCCCN5CCCCN=C5N)CC[C@]4(C)[C@H]3CC[C@]12C the MIC (S. aureus) was 2 µg/mL (≈ 3.7 µM).

COC(=O)CCC(C)[C@H]1CCC2C3C[C@@H](O)[C@H]4C[C@H](NCCN)CC[C@]4(C)C3CC[C@@]21C (some centres unmarked) gave an MIC (E. Coli) of 32 to 44 µg/mL (≈ 71.3 to 98.1 µM) and an MIC (P. aerug) of 128 µg/mL (≈ 285 µM).

In the case of CC(COS(=O)(=O)O)C(=O)CC[C@@H](C)[C@H]1CC[C@H]2[C@@H]3[C@H](O)C[C@H]4C[C@@H](NCCCNCCCCN)CC[C@]4(C)[C@H]3CC[C@]12C (single isomer, unassigned) [Compound 1360], the vitelline capillary regression ([1]; 1 μg applied) is reported as 0, the “effect on blood color in chick embryo” value ([1]; within 20 minutes) is reported as “the blood circulating through the embryonic vessels exhibited a brighter red color” and the inhibition at 1 µg/mL [2] is reported as 5%. The inhibition at 5 µg/mL [2] was 5%, the inhibition at 10 µg/mL [2] was 5% and the “pharmacological response in tadpole” value [3] was “Swelling and lysis of certain erythrocytes occurred, resulting in accumulation of nuclei within certain small vessels of the tail. Subsequent tissue breakdown occurred in areas of tail surrounding these nuclear plugs”. The “pharmacological response in tadpole” value ([3]; listed as compound 1360) was “extensive vasocclusion occurred within 60 minutes throughout the tail” and the chemical stability [4] was “undergoes a dehydration of the 27 hydroxyl, loss of sulfate, and generation of the corresponding 27-ene”.

In the case of CC(C)[C@@H](CC[C@@H](C)[C@H]1CC[C@H]2[C@@H]3[C@H](O)C[C@H]4C[C@@H](NCCCNCCCCNCCCN)CC[C@]4(C)[C@H]3CC[C@]12C)OS(=O)(=O)O [Compound 1436], the “inhibition of rabbit NHE3” value (rabbit NHE3) is reported as “found to inhibit rabbit NHE3”, the vitelline capillary regression ([1]; 0.001 μg applied) is reported as “+/-” and the vitelline capillary regression ([1]; 0.01 μg applied) is reported as “+”. The vitelline capillary regression ([1]; 0.1 μg applied) was “+”, the vitelline capillary regression ([1]; 1 μg applied) was “+” and the vitelline capillary regression ([1]; 10 μg applied) was “+”. For the same molecule, the “effect on chick embryo vitelline capillaries (in words)” value ([1]; in vivo) was “causes vitelline capillary regression with about the same potency as squalamine”, the “impact on tumor volume” value (B16 melanoma; compound 1436 alone 10 mg/kg/every 3 days) was “no significant impact on tumor volume” and the “tumor growth, single agent” value (B16 melanoma; squalamine 15 mg/kg/day, compound 1436 alone in a tolerable schedule) was “Neither administration of squalamine at 15 mg/kg/day nor compound 1436 alone in a tolerable schedule could achieve this effect”. The “cancer cells inhibited in vitro” value (Lewis lung carcinoma) was “INHIBITED”, the inhibition at 1 µg/mL [2] was 20% and the inhibition at 5 µg/mL [2] was 50%. For the same molecule, the inhibition at 10 µg/mL [2] was 80%, the “persistence of spontaneous beating of isolated heart” value [5] was “up to 24 hours” and the survival ([6]; highest dose (10 mg/kg every 3 days i.p.)) was “significant prolongation of life”. The granulocyte count ([6]; mouse, in vivo) was “robust granulocyte count”, the hematocrit ([6]; mouse, in vivo) was “near normal hematocrit” and the “time to death of tadpole” value ([3]; in vivo) was “about 2 hours”. For the same molecule, the “tadpole tail capillary occlusion” value ([3]; squalamine at 10 μg/ml) was “common vascular occlusive effect”, the reversibility of effect (arterial pressure; 40 μg noradrenaline at 30 minutes) was “readily reversible” and the “duration of effect on arterial pressure” value (arterial pressure; 5 mg/kg i.v.) was “followed for 30 minutes, without significant change”. For the same molecule, the heart rate (arterial pressure; 5 mg/kg i.v.) was “no significant increase in heart rate was observed”, the “time to fall in arterial pressure” value (arterial pressure; 5 mg/kg i.v.) was at most 30 s and the “pulse pressure after dosing” value (arterial pressure; 5 mg/kg i.v., from about 40 mm) was “about 10 mm”. For the same molecule, the “mean arterial pressure after dosing” value (arterial pressure; 5 mg/kg i.v., from about 100 mm Hg) was “about 70 mm Hg”, the hyperglycemia (fasting blood glucose) was “caused hyperglycemia in mice” and the “reduction in growth of mice” value ([7]; 1 mg/kg QTD i.p.) was “about 10%”. For the same molecule, the “suppression of growth of mice” value ([7]; 10 mg/kg QTD i.p., about 1 month) was “growth was almost completely inhibited”, the “health of treated animals” value ([7]; mouse, in vivo) was “all were active, normally proportioned, not-cachectic, and in excellent apparent clinical health” and the “cancer cells inhibited in vitro” value (Murine B16 melanoma) was “INHIBITED”. For the same molecule, the “non-transformed cells inhibited in vitro” value [8] was “INHIBITED”, the “non-transformed cells inhibited in vitro” value [9] was “INHIBITED” and the “cancer cells inhibited in vitro” value [10] was “INHIBITED”. For the same molecule, the “cancer cells inhibited in vitro” value (Human melanoma WM 1617) was “INHIBITED”, the “non-transformed cells inhibited in vitro” value [11] was “INHIBITED” and the “cancer cells inhibited in vitro” value (Murine L1210 leukemia) was “INHIBITED”. The “non-transformed cells inhibited in vitro” value [12] was “INHIBITED”, the “cancer cells inhibited in vitro” value [13] was “INHIBITED” and the “suppression of growth (in words)” value ([14]; FIG. 15) was “suppress in vitro the growth of human coronary artery smooth muscle”. The viability ([14]; about 11 μg/ml) was “without loss of viability” and the “cancer cells inhibited in vitro” value [15] was “INHIBITED”.

With COC(=O)CCC(C)[C@H]1CCC2C3CC[C@H]4C[C@H](NCCCNCCCCNCCCN)CC[C@]4(C)C3CC[C@@]21C (some centres unmarked) [drawing 108] the minimal effective concentration (HM) was 6.8 µg/mL.
